Patent US10952992B2, “Methods of treating intraocular pressure with activators of Tie-2” (Aerpio Pharmaceuticals, Inc., priority 2015, dated 2021)
Where “and” joins values, the source holds several entries; their conditions need not be identical. Identical values can stand only once.

Test: Example 2 iris, retina, choroid and cornea tissue concentrations
Type: in vivo, male New Zealand White rabbits
Conditions: for Average / Conc. (ng/g) OS / Conc. (ng/mL) OS / Conc. (ng/mL) OD / Conc. (ng/g) OD: subcutaneous 5 mg/kg/dose (Group 3); for Average Peak Concentration, Choroid / Average Peak Concentration, Cornea / Average Peak Concentration, Iris / Average Peak Concentration, Retina: suspension; for Choroid Conc. OS / Choroid Conc. OD: choroid homogenate; for Choroid Conc. OS / Choroid tissue Conc. OS / Cornea Conc. OS / Cornea tissue Conc. OS / Iris Conc. OS / Iris tissue Conc. OS / Retina Conc. OS / Retina tissue Conc. OS: left eye; for Choroid Conc. OS / Choroid Conc. OD / Choroid tissue Conc. OS / Choroid tissue Conc. OD / Cornea Conc. OS / Cornea Conc. OD / Cornea tissue Conc. OS / Cornea tissue Conc. OD / Iris Conc. OS / Iris Conc. OD / Iris tissue Conc. OS / Iris tissue Conc. OD / Retina Conc. OS / Retina Conc. OD / Retina tissue Conc. OS / Retina tissue Conc. OD: individual animals; for Choroid Conc. OS / Choroid Conc. OD / Choroid tissue Conc. Avg. / Choroid tissue Conc. OS / Choroid tissue Conc. OD / Cornea Conc. OS / Cornea Conc. OD / Cornea tissue Conc. Avg. / Cornea tissue Conc. OS / Cornea tissue Conc. OD / Iris Conc. OS / Iris Conc. OD / Iris tissue Conc. Avg. / Iris tissue Conc. OS / Iris tissue Conc. OD / Retina Conc. OS / Retina Conc. OD / Retina tissue Conc. Avg. / Retina tissue Conc. OS / Retina tissue Conc. OD: intravitreal 2.5 mg/eye (~1.54 mg/kg), group 5; for Choroid Conc. OD / Choroid tissue Conc. OD / Cornea Conc. OD / Cornea tissue Conc. OD / Iris Conc. OD / Iris tissue Conc. OD / Retina Conc. OD / Retina tissue Conc. OD: right eye; for Choroid tissue Conc. Avg. / Cornea tissue Conc. Avg. / Iris tissue Conc. Avg. / Retina tissue Conc. Avg.: average; for Cornea Conc. OS / Cornea Conc. OD: cornea homogenate; for Iris Conc. OS / Iris Conc. OD: iris homogenate; for Retina Conc. OS / Retina Conc. OD: retina homogenate
Procedure: To measure the concentration of Compound 1 in plasma and ocular tissues following topical ocular, subcutaneous, and intravitreal administration, New Zealand White rabbits were administered Compound 1, and plasma and ocular samples were collected at pre-determined time points. Compound 1 formulations were prepared fresh on each day of dosing.
Ocular tissue samples from both eyes of each animal were collected and weights were recorded. Plasma and ocular tissue sample concentrations of Compound 1 were determined by LC-MS/MS.
Animals were anesthetized for ocular (topical) and intravitreal dosing following the 12IA7 IACUC protocol. Each rabbit received a bolus dose of test formulation either via topical ocular administration 3 times daily on Days 1 and 2 (at 0, 6, and 12 hours), and once on Day 3 (at 0 hours) into both eyes; via intravitreal administration into both eyes once on Day 1 (at 0 hours); or via subcutaneous administration 2 times daily on Days 1 and 2 (at 0 and 8 hours) and once daily on Day 3 (at 0 hours). Doses were given within an approximately 1 hour window each day where applicable.
On Day 1, for intravitreal administration, or on Day 3, for topical ocular and subcutaneous administration, at the appropriate ocular tissue collection time points, animals were euthanized and both eyes were enucleated immediately. Following enucleation, each eye was rinsed with phosphate-buffered saline. Ocular tissue samples from both eyes of each animal were collected at predetermined time points and weights were recorded. All the samples were frozen immediately on dry ice, and stored at −60° C. to −80° C. pending bioanalysis.
An LC-MS/MS method was developed for the determination of Compound 1 in rabbit aqueous tissues (plasma, aqueous and vitreous humor) and solid ocular tissue samples. A pre-study standard curve was analyzed to determine the specificity, range, and lower limit of quantitation of the method. Plasma and tissue homogenate study samples were extracted and analyzed. All the samples were treated identically to the standards.
One eight-point standard curve was used in each analytical batch. To be accepted, each batch must have had at least five of eight standards with accuracy within ±20% of nominal, except at the lower limit of quantification (LLOQ), where ±25% was acceptable.

[1] = Choroid, 1 hr, free acid, listed as Compound 1 (free acid)
[2] = Group 3: subcutaneous 5 mg/kg/dose
[3] = Group 5: intravitreal 1.54 mg/kg/dose

## COC(=O)N[C@@H](Cc1ccccc1)C(=O)N[C@@H](Cc1ccc(NS(=O)(=O)O)cc1)c1csc(-c2cccs2)n1 [Compound 1 free acid]
Choroid, 0.5 hr, free acid
  Average: 127 ng/g
  Conc. (ng/g) OS: 83.1 ng/g and 154 ng/g
  Conc. (ng/mL) OS: 7.55 ng/mL and 14.0 ng/mL
Choroid, 1 hr, free acid
  Average: 83.3 ng/g
  Conc. (ng/mL) OD: 8.65 ng/mL
[1]
  Conc. (ng/g) OD: 66.4 ng/g and 95.2 ng/g
  Conc. (ng/g) OS: 88.1 ng/g and 83.6 ng/g
  Conc. (ng/mL) OD: 6.04 ng/mL
  Conc. (ng/mL) OS: 8.01 ng/mL and 7.60 ng/mL
Choroid, 2 hr, free acid
  Average: 47.7 ng/g
  Conc. (ng/g) OD: 36.5 ng/g and 46.9 ng/g
  Conc. (ng/g) OS: 53.2 ng/g and 54.3 ng/g
  Conc. (ng/mL) OD: 3.32 ng/mL and 4.26 ng/mL
  Conc. (ng/mL) OS: 4.84 ng/mL and 4.94 ng/mL
Choroid, 4 hr, free acid
  Average: 61.0 ng/g
  Conc. (ng/g) OD: 53.0 ng/g and 51.2 ng/g
  Conc. (ng/mL) OD: 4.82 ng/mL and 4.65 ng/mL
Cornea, 0.5 hr, free acid
  Average: 7.96 ng/g
  Conc. (ng/g) OD: 6.05 ng/g
  Conc. (ng/g) OS: 9.87 ng/g
Cornea, 1 hr, free acid
  Average: 12.2 ng/g
  Conc. (ng/g) OD: 12.2 ng/g
  Conc. (ng/mL) OS: BLOQ
Cornea, 2 hr, free acid
  Average: 5.65 ng/g
  Conc. (ng/g) OD: 5.65 ng/g
  Conc. (ng/mL) OS: BLOQ
Cornea, 4 hr, free acid
  Average: 15.8 ng/g
  Conc. (ng/g) OD: 10.4 ng/g and 9.32 ng/g
  Conc. (ng/mL) OD: 0.942 ng/mL and 0.847 ng/mL
[2]
  Average Peak Concentration, Choroid: 127 ng/g
  Average Peak Concentration, Cornea: 7.96 ng/g
  Average Peak Concentration, Iris: 50.3 ng/g
  Average Peak Concentration, Retina: 38.7 ng/g
[3]
  Average Peak Concentration, Choroid: 663575 ng/g
  Average Peak Concentration, Cornea: 54560 ng/g
  Average Peak Concentration, Iris: 210650 ng/g
  Average Peak Concentration, Retina: 1988250 ng/g
Iris, 0.5 hr, free acid
  Average: 50.3 ng/g
  Conc. (ng/g) OS: 47.0 ng/g and 38.9 ng/g
  Conc. (ng/mL) OS: 4.27 ng/mL and 3.54 ng/mL
Iris, 1 hr, free acid
  Average: 58.0 ng/g
  Conc. (ng/g) OS: 47.6 ng/g and 34.3 ng/g
  Conc. (ng/mL) OS: 4.33 ng/mL and 3.12 ng/mL
Iris, 2 hr, free acid
  Average: 27.6 ng/g
  Conc. (ng/g) OD: 30.5 ng/g and 32.0 ng/g
  Conc. (ng/g) OS: 29.5 ng/g
  Conc. (ng/mL) OD: 2.77 ng/mL and 2.91 ng/mL
  Conc. (ng/mL) OS: 2.68 ng/mL and 1.67 ng/mL
Iris, 4 hr, free acid
  Average: 17.5 ng/g
  Conc. (ng/g) OD: 26.5 ng/g and 17.9 ng/g
  Conc. (ng/g) OS: 16.9 ng/g and 8.73 ng/g
  Conc. (ng/mL) OD: 2.41 ng/mL and 1.63 ng/mL
  Conc. (ng/mL) OS: 1.54 ng/mL and 0.794 ng/mL
Retina, 0.5 hr, free acid
  Average: 38.7 ng/g
Retina, 1 hr, free acid
  Average: 10.2 ng/g
  Conc. (ng/g) OD: 10.4 ng/g
  Conc. (ng/g) OS: 6.93 ng/g and 13.3 ng/g
  Conc. (ng/mL) OS: 0.63 ng/mL and 1.21 ng/mL
Retina, 2 hr, free acid
  Average: 10.5 ng/g
  Conc. (ng/g) OD: 6.31 ng/g
  Conc. (ng/g) OS: 6.93 ng/g
Retina, 4 hr, free acid
  Average: 35.3 ng/g
  Conc. (ng/mL) OD: BLOQ
6.0 hr
  Choroid Conc. OS: 63400 ng/mL and 69700 ng/mL
  Choroid Conc. OD: 32800 ng/mL and 75400 ng/mL
  Choroid tissue Conc. Avg.: 663575 ng/g
  Choroid tissue Conc. OS: 697400 ng/g and 766700 ng/g
  Choroid tissue Conc. OD: 360800 ng/g and 829400 ng/g
  Cornea Conc. OS: 3140 ng/mL and 1180 ng/mL
  Cornea Conc. OD: 7910 ng/mL and 7610 ng/mL
  Cornea tissue Conc. Avg.: 54560 ng/g
  Cornea tissue Conc. OS: 34540 ng/g and 12980 ng/g
  Cornea tissue Conc. OD: 87010 ng/g and 83710 ng/g
  Iris Conc. OS: 13800 ng/mL and 12200 ng/mL
  Iris Conc. OD: 18500 ng/mL and 32100 ng/mL
  Iris tissue Conc. Avg.: 210650 ng/g
  Iris tissue Conc. OS: 151800 ng/g and 134200 ng/g
  Iris tissue Conc. OD: 203500 ng/g and 353100 ng/g
  Retina Conc. OS: 154000 ng/mL and 120000 ng/mL
  Retina Conc. OD: 146000 ng/mL and 303000 ng/mL
  Retina tissue Conc. Avg.: 1988250 ng/g
  Retina tissue Conc. OS: 1694000 ng/g and 1320000 ng/g
  Retina tissue Conc. OD: 1606000 ng/g
24 hr
  Choroid Conc. OS: 28400 ng/mL and 43500 ng/mL
  Choroid Conc. OD: 15200 ng/mL and 57500 ng/mL
  Choroid tissue Conc. Avg.: 397650 ng/g
  Choroid tissue Conc. OS: 312400 ng/g and 478500 ng/g
  Choroid tissue Conc. OD: 167200 ng/g and 632500 ng/g
  Cornea Conc. OS: 1190 ng/mL and 1050 ng/mL
  Cornea Conc. OD: 1520 ng/mL and 2520 ng/mL
  Cornea tissue Conc. Avg.: 17270 ng/g
  Cornea tissue Conc. OS: 13090 ng/g and 11550 ng/g
  Cornea tissue Conc. OD: 16720 ng/g and 27720 ng/g
  Iris Conc. OS: 14100 ng/mL and 8200 ng/mL
  Iris Conc. OD: 7670 ng/mL and 11000 ng/mL
  Iris tissue Conc. Avg.: 112668 ng/g
  Iris tissue Conc. OS: 155100 ng/g and 90200 ng/g
  Iris tissue Conc. OD: 84370 ng/g and 121000 ng/g
  Retina Conc. OS: 98900 ng/mL and 198000 ng/mL
  Retina Conc. OD: 130000 ng/mL and 145000 ng/mL
  Retina tissue Conc. Avg.: 1572725 ng/g
  Retina tissue Conc. OS: 1087900 ng/g and 2178000 ng/g
  Retina tissue Conc. OD: 1430000 ng/g and 1595000 ng/g
48 hr
  Choroid Conc. OS: 9320 ng/mL and 14800 ng/mL
  Choroid Conc. OD: 9940 ng/mL and 9580 ng/mL
  Choroid tissue Conc. Avg.: 120010 ng/g
  Choroid tissue Conc. OS: 102520 ng/g
  Choroid tissue Conc. OD: 109340 ng/g and 105380 ng/g
  Cornea Conc. OS: 293 ng/mL and 571 ng/mL
  Cornea Conc. OD: 437 ng/mL and 384 ng/mL
  Cornea tissue Conc. Avg.: 4634 ng/g
  Cornea tissue Conc. OS: 3223 ng/g and 6281 ng/g
  Cornea tissue Conc. OD: 4807 ng/g and 4224 ng/g
  Iris Conc. OS: 1950 ng/mL and 2030 ng/mL
  Iris Conc. OD: 1010 ng/mL and 1110 ng/mL
  Iris tissue Conc. Avg.: 16775 ng/g
  Iris tissue Conc. OS: 21450 ng/g and 22330 ng/g
  Iris tissue Conc. OD: 11110 ng/g and 12210 ng/g
  Retina Conc. OS: 14000 ng/mL and 101000 ng/mL
  Retina Conc. OD: 66700 ng/mL and 65500 ng/mL
  Retina tissue Conc. Avg.: 679800 ng/g
  Retina tissue Conc. OS: 154000 ng/g and 1111000 ng/g
  Retina tissue Conc. OD: 733700 ng/g and 720500 ng/g
72 hr
  Choroid Conc. OS: 2660 ng/mL and 2910 ng/mL
  Choroid Conc. OD: 2180 ng/mL and 2270 ng/mL
  Choroid tissue Conc. Avg.: 27555 ng/g
  Choroid tissue Conc. OS: 29260 ng/g and 32010 ng/g
  Choroid tissue Conc. OD: 23980 ng/g and 24970 ng/g
  Cornea Conc. OS: 117 ng/mL and 45.3 ng/mL
  Cornea Conc. OD: 37.7 ng/mL and 77.2 ng/mL
  Cornea tissue Conc. Avg.: 762 ng/g
  Cornea tissue Conc. OS: 1287 ng/g and 498 ng/g
  Cornea tissue Conc. OD: 415 ng/g and 849 ng/g
  Iris Conc. OS: 1800 ng/mL and 1320 ng/mL
  Iris Conc. OD: 279 ng/mL and 351 ng/mL
  Iris tissue Conc. Avg.: 10313 ng/g
  Iris tissue Conc. OS: 19800 ng/g and 14520 ng/g
  Iris tissue Conc. OD: 3069 ng/g and 3861 ng/g
  Retina Conc. OS: 10800 ng/mL and 12900 ng/mL
  Retina Conc. OD: 9890 ng/mL and 6070 ng/mL
  Retina tissue Conc. Avg.: 109065 ng/g
  Retina tissue Conc. OS: 118800 ng/g and 141900 ng/g
  Retina tissue Conc. OD: 108790 ng/g and 66770 ng/g
Intravitreal 1.54 mg/kg, free acid
  distribution among iris, retina, choroid, cornea (FIG. 16): generally higher in the retina and choroid
Intravitreal administration
  ocular tissue concentrations at 72 hours, free acid suspension relative to sodium salt solution: higher concentrations
Subcutaneous 5 mg/kg/dose, free acid
  distribution among iris, retina, choroid, cornea (FIG. 14): generally higher in the iris and choroid
